Values joined by “and” are separate entries in the source; they are usually repeats but may differ in a detail not shown here. Identical values can stand only once.
Legend:
HIV-2 cell line, CEMROD = test: Long term in vitro study, CEMROD, reverse transcriptase; type: cell-based
Description: A microtiter-based reveres transcriptase (RT) reaction is utilized (Buckheit et al (1991) AIDS Research and Human Retroviruses 7:295-302). Tritiated thymidine triphosphate (NEN)(TTP) is resuspended in distilled water at 5 Ci/ml. Poly rA and oligo dT are prepared as a stock solution which is kept at −20° C. The RT reaction buffer is prepared fresh on a daily basis and consists of 125 μl 1M EGTA, 125 μl water, 125 μl Triton X-100, 50 μl Tris (pH 7.4), 50 μl 1 MDDT, and 40 μl 1M MgCl2. These three solutions are mixed together in a ratio of 1 part TTP, 2.5 parts poly rA:oligo dT, 2.5 parts reaction buffer and 4 parts distilled water. Ten microliters of this reaction mixture is placed in a round bottom microtiter place and 15 μl of virus containing supernatant is added and mixed. The plate is incubated at 37° C. for 60 minutes. Following reaction, the reaction volume is spotted onto filter mats, washed 6 times for 5 minutes each in a 5% sodium phosphate buffer, 2 times for 1 minute each in distilled water, 2 times for 1 minute each in 70% ethanol, and then dried. The dried filter mat is placed in a plastic sample bag, Betaplate scintillation fluid is added and the bag is heat sealed. Incorporated radioactivity is quantified utilizing a Wallac Microbeta scintillation counter.
Acute infection of most established human cell lines with HIV-1 results in the eventual establishment of a constitutive virus-producing chronically infected cell line. The cells can be passaged for long periods of time in culture without loss of virus production. These cells may be utilized to evaluate the effects of anti-HIV compounds on syncytium formation or to evaluate the effects of anti-HIV compounds on levels of virus production from these cells. […] Each of the cells contains an integrated HIV genome or provirus. Chronically infected CEM, H9 and U937 cell lines have been prepared and cultured by Southern Research Institute, Frederick Md. and are available from them.
CEM-SS cells chronically infected with HIV isolate, for example SKI (CEM-SKI) are cultured in RPMI1640 tissue culture medium supplemented with 10% fetal bovine serum and antibiotics. […] CEM-SKI or other infected cells with no added drug are used as the control cells. Cells are allowed to grow to a density of approximately 1×10^6 cells/ml and are then passaged at a 1:10 dilution. […] The drug concentration in the flask is then increased two-fold and the cells maintained as above.
The cell populations contain integrated copies of the HIV genome and constitutively produce HIV at relatively high levels or are latently infected and only produce virus after stimulation with phorbol esters, tumor necrosis factor or IL6 (U1 and ACH2). Reductions in virus products were observed when quantifying supernatant reverse transcriptase activity,
A long term in vitro study of 2-(2-thienyl)-imidazolo [4,5-b]pyridine against an HIV-2 cell line, CEMROD was conducted at three different levels. The results with CEMROD cells were reported at weekly intervals.

CEMROD = CEMROD screening: toxicity values (XTT); type: cell-based, human; design: Toxicity Values, samples 1-3 / Toxicity Values, average: unit not given here
Description: After 6 days (or the experimental period) of incubation at 37° C. in a 5% carbon dioxide incubator the test plates are analyzed by staining with the tetrazolium dye XTT. […] On day 6 post-infection plates are removed from the incubator and observed. […] The results of the macroscopic observations were confirmed and enhanced by further microscopic analysis.
Phenazine methosulfate (PMS) solution is prepared at 15 mg/ml in PBS and stored in the dark at −20° C. […] Fifty microliters of XTT/PMS is added to each well of the plate and the plate is reincubated or 4 hours at 37° C. […] Percent cell reduction, percent cell viability, IC25,50, & 95 and TC25,50, & 95 can then be calculated.

[1] = Table 2 duplicate study, 0.32 μg/ml
[2] = Table 2 duplicate study, 1 μg/ml
[3] = Table 2 duplicate study, 1.0 μg/ml
[4] = Table 2 duplicate study, 3.2 μg/ml
[5] = Table 2 duplicate study, 32 μg/ml
[6] = Table 2 duplicate study, 100 μg/ml

c1csc(-c2nc3cccnc3[nH]2)c1 [2-(2-thienyl)-imidazolo [4,5-b]pyridine]
reverse transcriptase data (HIV-2 cell line, CEMROD; 7 μg/ml, day 4): 8506
reverse transcriptase data (HIV-2 cell line, CEMROD; 7 μg/ml, day 11): 9471
reverse transcriptase data (HIV-2 cell line, CEMROD; 7 μg/ml, day 18): 6147
reverse transcriptase data (HIV-2 cell line, CEMROD; 7 μg/ml, day 25): 6302
reverse transcriptase data (HIV-2 cell line, CEMROD; 7 μg/ml, day 32): 5482
reverse transcriptase data (HIV-2 cell line, CEMROD; 7 μg/ml, day 39): 7253
reverse transcriptase data (HIV-2 cell line, CEMROD; 7 μg/ml, day 46): 4822
reverse transcriptase data (HIV-2 cell line, CEMROD; 7 μg/ml, day 53): 7257
reverse transcriptase data (HIV-2 cell line, CEMROD; 7 μg/ml, day 60): 7019
reverse transcriptase data (HIV-2 cell line, CEMROD; 7 μg/ml, day 67): 7215
reverse transcriptase data (HIV-2 cell line, CEMROD; 7 μg/ml, day 71): 9052
reverse transcriptase data (HIV-2 cell line, CEMROD; 7 μg/ml, day 74): 6240
reverse transcriptase data (HIV-2 cell line, CEMROD; 7 μg/ml, day 88): 10053
reverse transcriptase data (HIV-2 cell line, CEMROD; 7 μg/ml, day 95): 7482
reverse transcriptase data (HIV-2 cell line, CEMROD; 7 μg/ml, day 102): 8023
reverse transcriptase data (HIV-2 cell line, CEMROD; 7 μg/ml, day 109): 13890
reverse transcriptase data (HIV-2 cell line, CEMROD; 15 μg/ml, day 4): 7447
reverse transcriptase data (HIV-2 cell line, CEMROD; 15 μg/ml, day 11): 8887
reverse transcriptase data (HIV-2 cell line, CEMROD; 15 μg/ml, day 18): 5399
reverse transcriptase data (HIV-2 cell line, CEMROD; 15 μg/ml, day 25): 5040
reverse transcriptase data (HIV-2 cell line, CEMROD; 15 μg/ml, day 32): 4695
reverse transcriptase data (HIV-2 cell line, CEMROD; 15 μg/ml, day 39): 6277
reverse transcriptase data (HIV-2 cell line, CEMROD; 15 μg/ml, day 46): 2165
reverse transcriptase data (HIV-2 cell line, CEMROD; 15 μg/ml, day 53): 6546
reverse transcriptase data (HIV-2 cell line, CEMROD; 15 μg/ml, day 60): 5940
reverse transcriptase data (HIV-2 cell line, CEMROD; 15 μg/ml, day 67): 3215
reverse transcriptase data (HIV-2 cell line, CEMROD; 15 μg/ml, day 71): 7256
reverse transcriptase data (HIV-2 cell line, CEMROD; 15 μg/ml, day 74): 4687
reverse transcriptase data (HIV-2 cell line, CEMROD; 15 μg/ml, day 88): 8277
reverse transcriptase data (HIV-2 cell line, CEMROD; 15 μg/ml, day 95): 5116
reverse transcriptase data (HIV-2 cell line, CEMROD; 15 μg/ml, day 102): 6546
reverse transcriptase data (HIV-2 cell line, CEMROD; 15 μg/ml, day 109): 10349
reverse transcriptase data (HIV-2 cell line, CEMROD; 30 μg/ml, day 4): 4426
reverse transcriptase data (HIV-2 cell line, CEMROD; 30 μg/ml, day 11): 7092
reverse transcriptase data (HIV-2 cell line, CEMROD; 30 μg/ml, day 18): 3322
reverse transcriptase data (HIV-2 cell line, CEMROD; 30 μg/ml, day 25): 3212
reverse transcriptase data (HIV-2 cell line, CEMROD; 30 μg/ml, day 32): 3960
reverse transcriptase data (HIV-2 cell line, CEMROD; 30 μg/ml, day 39): 4543
reverse transcriptase data (HIV-2 cell line, CEMROD; 30 μg/ml, day 46): 1245
reverse transcriptase data (HIV-2 cell line, CEMROD; 30 μg/ml, day 53): 2402
reverse transcriptase data (HIV-2 cell line, CEMROD; 30 μg/ml, day 60): 2410
reverse transcriptase data (HIV-2 cell line, CEMROD; 30 μg/ml, day 67): 1843
reverse transcriptase data (HIV-2 cell line, CEMROD; 30 μg/ml, day 71): 2121
reverse transcriptase data (HIV-2 cell line, CEMROD; 30 μg/ml, day 74): 1285
reverse transcriptase data (HIV-2 cell line, CEMROD; 30 μg/ml, day 88): 2543
reverse transcriptase data (HIV-2 cell line, CEMROD; 30 μg/ml, day 95): 2245
reverse transcriptase data (HIV-2 cell line, CEMROD; 30 μg/ml, day 102): 2402
reverse transcriptase data (HIV-2 cell line, CEMROD; 30 μg/ml, day 109): 1140
reverse transcriptase data on continuation (in words) (HIV-2 cell line, CEMROD; run through 242 days): data remained consistent
Toxicity Values, % cell control (CEMROD; Table 1, 0.32 μg/ml): 102%
Toxicity Values, average (CEMROD; Table 1, 0.32 μg/ml): 1.144
Toxicity Values, % cell control (CEMROD; Table 1, 1 μg/ml): 100.1%
Toxicity Values, average (CEMROD; Table 1, 1 μg/ml): 1.122
Toxicity Values, % cell control (CEMROD; Table 1, 1.0 μg/ml): 81.3%
Toxicity Values, average (CEMROD; Table 1, 1.0 μg/ml): 0.912
Toxicity Values, % cell control (CEMROD; Table 1, 3.2 μg/ml): 94.1%
Toxicity Values, average (CEMROD; Table 1, 3.2 μg/ml): 1.055
Toxicity Values, % cell control (CEMROD; Table 1, 32 μg/ml): 28.7%
Toxicity Values, average (CEMROD; Table 1, 32 μg/ml): 0.322
Toxicity Values, % cell control (CEMROD; Table 1, 100 μg/ml): 7.6%
Toxicity Values, average (CEMROD; Table 1, 100 μg/ml): 0.086
Toxicity Values, % cell control (CEMROD; [1]): 114.7%
Toxicity Values, average (CEMROD; [1]): 1.088
Toxicity Values, samples 1-3 (CEMROD; [1]): 1.189 and 1.074 and 1.000
Toxicity Values, % cell control (CEMROD; [2]): 108.4%
Toxicity Values, average (CEMROD; [2]): 1.028
Toxicity Values, samples 1-3 (CEMROD; [2]): 1.066 and 1.038 and 0.980
Toxicity Values, % cell control (CEMROD; [3]): 72.2%
Toxicity Values, average (CEMROD; [3]): 0.684
Toxicity Values, samples 1-3 (CEMROD; [3]): 0.694 and 0.726 and 0.633
Toxicity Values, % cell control (CEMROD; [4]): 98.9%
Toxicity Values, average (CEMROD; [4]): 0.938
Toxicity Values, samples 1-3 (CEMROD; [4]): 1.008 and 0.924 and 0.881
Toxicity Values, % cell control (CEMROD; [5]): 17.4%
Toxicity Values, average (CEMROD; [5]): 0.165
Toxicity Values, samples 1-3 (CEMROD; [5]): 0.183 and 0.168 and 0.145
Toxicity Values, % cell control (CEMROD; [6]): 13.5%
Toxicity Values, average (CEMROD; [6]): 0.128
Toxicity Values, samples 1-3 (CEMROD; [6]): 0.121 and 0.133 and 0.130
toxicity (in words) (CEMROD; at the higher concentrations): not toxic

— US20030232851A1, “Viral treatment” (The Procter & Gamble Company, priority 1999, published 2003)
